# Measurements as given in ChEMBL document CHEMBL1121385, “Phenylalkylamines with potential psychotherapeutic utility. 2. Nuclear substituted 2-amino-1-phenylbutanes” (1980).
# Tests used:
# [1] = test system: Felis catus; experiment: Numerical score on cat behavior was measured at a dose of 10 mg/kg administered subcutaneously; assay type: functional; details: route subcutaneous
# [2] = organism: Rattus norvegicus; experiment: Evaluated for intertrial interval activity in rat; NE means no statistically significant effect; assay type: functional, organism-based
# [3] = test system: Rattus norvegicus; experiment: Minimal dose (ip) required to produce a significant increase in avoidance responding in rat; assay type: functional; details: read-out: MED
# [4] = organism: Rattus norvegicus; experiment: Potency to produce a significant increase in avoidance responding in rat relative to BL-3912A; assay type: functional
# [5] = test system: Felis catus; experiment: Numerical score on cat behavior was measured at a dose of 10 mg/kg, administered subcutaneously.; assay type: functional; details: route subcutaneous
# [6] = organism: Rattus norvegicus; experiment: Evaluated for intertrial interval activity in rat; NE means no statistically significant activity; assay type: functional, organism-based
# [7] = organism: Rattus norvegicus; experiment: Evaluated for intertrial interval activity in rat; statistically significant increase; assay type: functional, organism-based
smiles,measurement,setting,value
CC[C@@H](N)Cc1cc(OC)c(C)cc1OC.Cl [DIMOXAMINE HYDROCHLORIDE],Cat score,[1],1.3
same,ITI activity,[2],No effect
same,minimal effective dose,[3],5 mg/kg
same,Relative potency,[4],1
CCC(N)Cc1cc(OC)c(Br)cc1OC.Cl (racemic),Cat score,[5],2
CCCOc1cc(OC)c(CC(N)CC)cc1OC.Cl (racemic),Cat score,[5],0
CCCc1cc(OC)c(CC(N)CC)cc1OC.Cl (racemic),Cat score,[5],2.5
CCc1cc(OC)c(CC(N)CC)cc1OC.Cl (racemic),Cat score,[1],4
CCCOc1cc(OC)c(C[C@H](N)CC)cc1OC.Cl,Cat score,[5],1.5
CCCCc1cc(OC)c(C[C@H](N)CC)cc1OC.Cl,Cat score,[5],0
same,ITI activity,[6],No effect
same,minimal effective dose,[3],> 20 mg/kg
same,Relative potency,[4],<0.25
CC[C@@H](N)Cc1cc(OC)ccc1OC.Cl,Cat score,[5]; 10 mg/kg,0.5
CC[C@H](N)Cc1cc(OC)c(Br)cc1OC.Cl,Cat score,[5],2
CCCc1cc(OC)c(C[C@H](N)CC)cc1OC.Cl,Cat score,[5],0.5
same,ITI activity,[7],Statistically significant increase
same,minimal effective dose,[3],1 mg/kg
same,Relative potency,[4],5
CC[C@@H](N)Cc1cc(OC)c(C(C)C)cc1OC.Cl,Cat score,[5],0
same,ITI activity,[2],No effect
same,minimal effective dose,[3],> 20 mg/kg
same,Relative potency,[4],<0.25
CCc1cc(OC)c(C[C@@H](N)CC)cc1OC.Cl,Cat score,[5],1
CC[C@@H](N)Cc1cc(OC)c(I)cc1OC.Cl,Cat score,[5],2.5
CC[C@H](N)Cc1cc(OC)c(C)cc1OC.Cl,Cat score,[1],0.5
CCc1cc(OC)c(C[C@H](N)CC)cc1OC.Cl,Cat score,[1],3.3
same,ITI activity,[7],Statistically significant increase
same,minimal effective dose,[3],2 mg/kg
same,Relative potency,[4],2.5
CC[C@@H](N)Cc1cc(OC)c([N+](=O)[O-])cc1OC.Cl,Cat score,[5],3.5
CC[C@@H](N)Cc1cc(OC)c(Cl)cc1OC.Cl,Cat score,[5],6.5
same,ITI activity,[2],No effect
same,minimal effective dose,[3],20 mg/kg
same,Relative potency,[4],0.25
CC[C@@H](N)Cc1cc(OC)c(OC(C)C)cc1OC.Cl,Cat score,[5],0
CCC(N)Cc1cc(OC)c(SC)cc1OC.Cl (racemic),Cat score,[5],1
CCOc1cc(OC)c(C[C@H](N)CC)cc1OC.Cl,Cat score,[5],1.5
CC[C@@H](N)Cc1cc(OC)c(O)cc1OC.Cl,Cat score,[5],0.5
"CCC(N)Cc1cc(OC)ccc1OC.Cl (single isomer, unassigned)",Cat score,[5]; 10 mg/kg,2
CC[C@H](N)Cc1cc(OC)c(SC)cc1OC.Cl,Cat score,[5],1
CC[C@@H](N)Cc1cc(OC)c(Br)cc1OC.Cl,Cat score,[1],3.5
same,ITI activity,[7],Statistically significant increase
same,minimal effective dose,[3],2 mg/kg
same,Relative potency,[4],2.5
CCC(N)Cc1cc(OC)ccc1OC.Cl (racemic),Cat score,[5],2
CCC(N)Cc1cc(OC)c(C(C)C)cc1OC.Cl (racemic),Cat score,[5],0.5
CC[C@@H](N)Cc1cc(OC)c(N)cc1OC.Cl,Cat score,[5],1.5
